Assay results taken from US20120165223A1 (priority 2006, published 2012).

System: Enterococcus spp.
Test: Composition of flora in feces of HFA mice: Enterococcus spp.
Assay type: in vivo
Conditions: 4th and 27th day from the medication, 500 μg/Ml in drinking water

## colistin sulfate
  Enterococcus spp. in feces: decreased in similar way to the control group
